Patent publication US7563864B2, “Prolyl endopeptidase mediated destruction of T cell epitopes in whole gluten” (Celiac Sprue Research Foundation, priority 2004, dated 2009)

How the values were obtained:
Assay type in all cases: cell-based, human
Set-up in all cases: key: −: no response; Stimulatory index (SI; T + APC + TG2-treated peptide divided by T + APC) of 3-10; ++: SI above 10
Details in all cases: DQ2+ APC, 5 μM TG2-treated peptide, 3H thymidine incorporation
[1] = tested on: intestinal T cell line 421.1.4; assay: T cell proliferation assay, polyclonal T cell line 421.1.4
Description: (§1) T cell assays—The generation of polyclonal gluten-specific T cell lines derived from ex vivo gluten challenged small intestinal biopsy specimens of adult Celiac Sprue patients have been described elsewhere. For this study 14 different intestinal T cell lines derived from 13 DQ2+celiac patients were selected based on two basic criteria; effective recognition of TG2-treated digests of gluten and significant responses to at least two different gluten epitopes (Table 2). The generation of intestinal T cell clones and the epitope specificity of these clones, except TCC 387.3, has been described elsewhere (10). The TCC 387.3 recognizes a TG2-dependent epitope, defined as γ-VI that is contained within residues 62-72 (PQQPFPQQPQQ) of recombinant γ-5 gliadin. The freeze-dried, proteolyzed gluten samples were dissolved in PBS with 2 mM CaCl2 and treated with 150 μg/ml human recombinant TG2 (14) or, in some experiments 200 μg/ml guinea pig transglutaminase (Sigma T-5398), for 2 hours at 37° C. The TG2-treated samples were incubated overnight in triplicates on U-bottomed 96 well plates with 75 000 cells per well of DQ2 homozygous, irradiated (75 Gy) EBV-transformed B-lymphoblastoid cell lines in a volume of 100 μl 15% pooled, inactivated human serum and RPMI1640. After the incubation 50 μl of freshly thawed T cells (1×10^6 cells/ml) were added to each well. The proliferation in the wells was evaluated by ^3H thymidine incorporation from 48-72 hours after the addition of the T cells.

[2] = tested on: intestinal T cell line 422.4.2; assay: T cell proliferation assay, polyclonal T cell line 422.4.2
Description: as §1

[3] = tested on: intestinal T cell line 432.2.1; assay: T cell proliferation assay, polyclonal T cell line 432.2.1
Description: as §1

[4] = tested on: intestinal T cell line 437.1.1; assay: T cell proliferation assay, polyclonal T cell line 437.1.1
Description: as §1

[5] = tested on: intestinal T cell line 437.1.3; assay: T cell proliferation assay, polyclonal T cell line 437.1.3
Description: as §1

[6] = tested on: intestinal T cell line 446.1.3; assay: T cell proliferation assay, polyclonal T cell line 446.1.3
Description: as §1

[7] = tested on: intestinal T cell line 451.1.1; assay: T cell proliferation assay, polyclonal T cell line 451.1.1
Description: as §1

[8] = tested on: intestinal T cell line 461.1.4; assay: T cell proliferation assay, polyclonal T cell line 461.1.4
Description: as §1

[9] = tested on: intestinal T cell line 482.1.4; assay: T cell proliferation assay, polyclonal T cell line 482.1.4
Description: as §1

[10] = tested on: intestinal T cell line 488.3.1; assay: T cell proliferation assay, polyclonal T cell line 488.3.1
Description: as §1

[11] = tested on: intestinal T cell line 491.1.3; assay: T cell proliferation assay, polyclonal T cell line 491.1.3
Description: as §1

[12] = tested on: intestinal T cell line 494.1.1; assay: T cell proliferation assay, polyclonal T cell line 494.1.1
Description: as §1

[13] = tested on: intestinal T cell line 496.1.2; assay: T cell proliferation assay, polyclonal T cell line 496.1.2
Description: as §1

[14] = tested on: intestinal T cell line 502.1.2; assay: T cell proliferation assay, polyclonal T cell line 502.1.2
Description: as §1

Row | Substance | Response to TG2-treated gluten peptides (stimulatory index) [1] | Response to TG2-treated gluten peptides (stimulatory index) [2] | Response to TG2-treated gluten peptides (stimulatory index) [3] | Response to TG2-treated gluten peptides (stimulatory index) [4] | Response to TG2-treated gluten peptides (stimulatory index) [5] | Response to TG2-treated gluten peptides (stimulatory index) [6] | Response to TG2-treated gluten peptides (stimulatory index) [7] | Response to TG2-treated gluten peptides (stimulatory index) [8] | Response to TG2-treated gluten peptides (stimulatory index) [9] | Response to TG2-treated gluten peptides (stimulatory index) [10] | Response to TG2-treated gluten peptides (stimulatory index) [11] | Response to TG2-treated gluten peptides (stimulatory index) [12] | Response to TG2-treated gluten peptides (stimulatory index) [13] | Response to TG2-treated gluten peptides (stimulatory index) [14]
1 | QLQPFPQPQLPY [α-I] | − | + (Stimulatory index (SI; T + APC + TG2-treated peptide divided by T + APC) of 3-10) | − | − | + (Stimulatory index (SI; T + APC + TG2-treated peptide divided by T + APC) of 3-10) | + (Stimulatory index (SI; T + APC + TG2-treated peptide divided by T + APC) of 3-10) | − | − | − | + (Stimulatory index (SI; T + APC + TG2-treated peptide divided by T + APC) of 3-10) | + (Stimulatory index (SI; T + APC + TG2-treated peptide divided by T + APC) of 3-10) | + (Stimulatory index (SI; T + APC + TG2-treated peptide divided by T + APC) of 3-10) | ++ (SI above 10) | ++ (SI above 10)
2 | PQPQLPYPQPQLPY [α-II] | + (Stimulatory index (SI; T + APC + TG2-treated peptide divided by T + APC) of 3-10) | ++ (SI above 10) | ++ (SI above 10) | + (Stimulatory index (SI; T + APC + TG2-treated peptide divided by T + APC) of 3-10) | + (Stimulatory index (SI; T + APC + TG2-treated peptide divided by T + APC) of 3-10) | ++ (SI above 10) | + (Stimulatory index (SI; T + APC + TG2-treated peptide divided by T + APC) of 3-10) | + (Stimulatory index (SI; T + APC + TG2-treated peptide divided by T + APC) of 3-10) | + (Stimulatory index (SI; T + APC + TG2-treated peptide divided by T + APC) of 3-10) | ++ (SI above 10) | ++ (SI above 10) | ++ (SI above 10) | + (Stimulatory index (SI; T + APC + TG2-treated peptide divided by T + APC) of 3-10) | + (Stimulatory index (SI; T + APC + TG2-treated peptide divided by T + APC) of 3-10)
3 | GIIQPQQPAQL [γ-II] | + (Stimulatory index (SI; T + APC + TG2-treated peptide divided by T + APC) of 3-10) | − | − | − | − | ++ (SI above 10) | ++ (SI above 10) | − | − | − | − | − | ++ (SI above 10) | −
4 | LQLQPFPQPQLPYPQPQLPYPQPQLPYPQPQPF [αG-33] | ++ (SI above 10) | ++ (SI above 10) | ++ (SI above 10) | ++ (SI above 10) | ++ (SI above 10) | ++ (SI above 10) | ++ (SI above 10) | + (Stimulatory index (SI; T + APC + TG2-treated peptide divided by T + APC) of 3-10) | ++ (SI above 10) | ++ (SI above 10) | ++ (SI above 10) | ++ (SI above 10) | ++ (SI above 10) | ++ (SI above 10)
5 | QPQQPQQSFPQQQRP [γ-I] | − | − | + (Stimulatory index (SI; T + APC + TG2-treated peptide divided by T + APC) of 3-10) | − | + (Stimulatory index (SI; T + APC + TG2-treated peptide divided by T + APC) of 3-10) | − | − | − | − | − | + (Stimulatory index (SI; T + APC + TG2-treated peptide divided by T + APC) of 3-10) | − | − | −
6 | QQxSQPQxPQQQQxPQQPQQF [Glu-5] | − | − | − | − | − | + (Stimulatory index (SI; T + APC + TG2-treated peptide divided by T + APC) of 3-10) | − | − | − | − | + (Stimulatory index (SI; T + APC + TG2-treated peptide divided by T + APC) of 3-10) | − | − | −
